The structures appear in SMILES notation.

Assay [1] deals with T1, CCK-B receptors on small cell lung cancer cell lines (Homo sapiens, UniProt P32239).
T1 construct: endogenous in cells; host or cells: NCI-H345 and H209 small cell lung cancer cells
T1 sequence (P32239 1-447): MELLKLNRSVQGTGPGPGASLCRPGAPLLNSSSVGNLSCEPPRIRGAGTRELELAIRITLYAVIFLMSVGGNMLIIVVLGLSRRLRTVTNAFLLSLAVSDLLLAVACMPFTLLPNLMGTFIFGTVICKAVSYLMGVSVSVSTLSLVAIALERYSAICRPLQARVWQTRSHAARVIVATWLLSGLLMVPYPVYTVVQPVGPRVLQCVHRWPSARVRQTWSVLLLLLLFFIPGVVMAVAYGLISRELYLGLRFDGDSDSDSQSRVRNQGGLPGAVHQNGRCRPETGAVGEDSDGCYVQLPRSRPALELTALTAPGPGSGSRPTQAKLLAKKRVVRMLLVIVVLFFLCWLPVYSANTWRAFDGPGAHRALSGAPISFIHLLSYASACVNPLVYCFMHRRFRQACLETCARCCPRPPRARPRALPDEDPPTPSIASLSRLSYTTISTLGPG
The assay is described as follows: Measurement of [Ca++]i changes in NCI-H345 and H209 cell lines (indo-1 fluorescence). The format is cell-based. The conditions noted are these: read-out: Intrinsic Activity Relative to CCK-8.
Description: Protocol for Measuring [Ca++]i Changes in NCI-H345 and H209 Cell Lines
Culture conditions were as described (D.G. Yoder, T.W. Moody, Peptides, 8, 103 (1987), except that the medium was modified to RPMI 1640 with 2.5% fetal bovine serum (heat inactivated), 5µg/l sodium selenite, 5 mg/l human transferrin, 5 mg/l insulin, penicillin (100 U/l) and streptomycin (100 µg/l). To measure intracellular Ca²⁺, cells were loaded with 1 µM of indo-1,AM, for 60 min at 37°C. The cells were centrifuged at 750 x g for 5 min and resuspended in 40 mL Buffer F (Dulbecco's phosphate buffered saline containing 0.1% glucose, pH 7.4). The cells were counted then twice washed by centrifugation. The final pellet was resuspended (approximately 1 x 10⁶ cells/mL) in Buffer F. The cells were thermally equilibrated in a thermostated cuvette (37°C) for 2 min prior to base-line fluorescence measurement. Fluorescence measurements were made with an SLM 8000C spectrofluorimeter equipped with magnetic microstirrer and polarizing filters. Measurements with indo-1-loaded cells were obtained at excitation wavelength of 350 nm and emission wavelength of 480 and 405 nM and the time interval for the measurements was 0.5 sec.

In the next assay the target is T2, cortical CCK receptor (Cavia porcellus, UniProt H0VZC5).
T2 construct: Cortical and pancreatic membranes were prepared as described; from tissue; host or cells: guinea pig cerebral cortex membranes
T2 sequence (H0VZC5 1-426): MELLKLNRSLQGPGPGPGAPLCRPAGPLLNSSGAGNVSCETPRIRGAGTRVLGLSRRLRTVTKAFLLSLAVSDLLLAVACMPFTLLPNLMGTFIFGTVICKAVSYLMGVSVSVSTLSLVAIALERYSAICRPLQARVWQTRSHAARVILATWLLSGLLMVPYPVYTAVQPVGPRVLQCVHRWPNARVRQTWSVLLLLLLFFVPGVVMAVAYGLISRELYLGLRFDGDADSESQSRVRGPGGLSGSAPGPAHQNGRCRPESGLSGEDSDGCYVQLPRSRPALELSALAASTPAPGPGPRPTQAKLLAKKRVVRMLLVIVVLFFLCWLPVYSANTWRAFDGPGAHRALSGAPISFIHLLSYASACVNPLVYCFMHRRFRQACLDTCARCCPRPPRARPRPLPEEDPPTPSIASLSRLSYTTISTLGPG
The assay is described as follows: Radioligand binding ([125I]Bolton-Hunter CCK8) in guinea pig cerebral cortical membranes. The conditions noted are these: displacement of [125I]BH-CCK8, cortical membranes, 30°C for 150 min, Hill analysis; read-out: IC₅₀ (nM) cortex. The text has this:
Protocol for Radioligand Binding Experiments in Guinea Pig Cerebral Cortical and Pancreatic Membrance Preparations
CCK8 (Asp-Tyr(SO₃H)-Met-Gly-Trp-Met-Asp-Phe-NH₂), bestatin and phosphormaidon were purchased from Peptide International (Louisville, KY). EGTA, HEPES, BSA were purchased from Sigma Chemical Co. (St. Louis, MO). [¹²⁵I]-Bolton-Hunter CCK8 (BH-CCK8) (specific activity, 2200 Ci, mmol) was obtained from New England Nuclear (Boston, MA). Male ginea pigs, 250 to 325 g, were obtained from Scientific Small Animal Laboratory and Farm (Arlington Heights, IL). Collangenase, code CLSPA was purchased from Worthington (Frehold, NJ).
Cortical and pancreatic membranes were prepared as described (Lin and Miller; J. Pharmacol. Exp. Ther. 232, 775-780, 1985). In brief, pancreas and cortex were removed and rinsed with ice-cold saline. Visible fat and connective tissues were removed from the pancreas. Tissues were weighed and homogenized in approximately 25 mL of ice-cold 50 mM Tris-HCl buffer, pH 7.4 at 4°C with a Brinkman Polytron for 30 sec, setting 7. The homogenates were centrifuged for 10 min at 1075 x g and the pellet was discarded. The supernantants were saved and centrifuged at 38,730 x g for 20 min. The resultant pellets were rehomogenized in 25 mL of 50 mM Tris-HCl buffer with a Teflon-glass homogenizer, 5 up and down strokes. The homogenates were centrifuged again at 38,730 x g for 20 min. The pellets were then resuspended in 20 mM HEPES, containing 1 mM EGTA, 118 mM NaCl, 4.7 mM KCl, 5mM MgCl₂, 100 uM bestatin, 3 uM phosphoramidon, pH 7.4 at 22°C with a Teflon-glass homogenizer, 15 up and down strokes. The resuspension volume used for the cortex was 15 mL per g of original wet weight and 60 mL per g for pancreas.
[¹²⁵I]Bolton-Hunter CCK8 and test compounds were diluted with HEPES-EGTA-salt buffer (see above) containing 0.5% bovine serum albumin (BSA). To 1 mL Skatron polystyrene tubes were added 25 uL of test compounds, 25 uL of [¹²⁵I]BH-CCK8 and 200 uL of membrane suspension. The final BSA concentration was 0.1%. The cortical tissues were incubated at 30°C for 150 min. and pancreatic tissues were incubated at 37°C for 150 min. Incubations were terminated by filtration using Skatron Cell Harvester and SS32 microfiber filter mats. The specific binding of [¹²⁵I]BH-CCK8, defined as the difference betwen binding in the absence and presence of 1 uM CCK8, was 85-90% of total binding in cortex and 90-95% in pancreas. IC₅₀s were determined from the Hill analysis.
Background: Displacement assays read how much labelled ligand stays bound in the presence of the test substance.

For the next assay, the target named is T3, CCK receptors (Cavia porcellus, UniProt Q63931).
T3 construct: Cortical and pancreatic membranes were prepared as described; from tissue; host or cells: guinea pig pancreas membranes
T3 sequence (Q63931 1-430): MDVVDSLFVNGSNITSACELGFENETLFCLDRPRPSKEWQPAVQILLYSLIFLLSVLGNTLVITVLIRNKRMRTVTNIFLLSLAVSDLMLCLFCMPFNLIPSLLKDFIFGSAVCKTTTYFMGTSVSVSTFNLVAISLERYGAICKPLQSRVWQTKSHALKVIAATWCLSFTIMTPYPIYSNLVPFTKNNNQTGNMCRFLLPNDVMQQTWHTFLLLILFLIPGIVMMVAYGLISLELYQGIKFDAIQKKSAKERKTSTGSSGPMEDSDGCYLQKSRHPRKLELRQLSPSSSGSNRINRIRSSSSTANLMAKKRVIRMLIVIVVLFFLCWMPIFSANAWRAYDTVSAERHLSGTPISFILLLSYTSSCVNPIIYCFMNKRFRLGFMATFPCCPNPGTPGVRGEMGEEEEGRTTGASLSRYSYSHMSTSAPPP
The assay is described as follows: Radioligand binding ([125I]Bolton-Hunter CCK8) in guinea pig pancreatic membranes. The conditions noted are these: displacement of [125I]BH-CCK8, pancreatic membranes, 37°C for 150 min, Hill analysis; read-out: IC₅₀ (uM) pancreas.

Description for CCK receptors: EGTA, HEPES, BSA were purchased from Sigma Chemical Co. (St. Louis, MO). […] Male ginea pigs, 250 to 325 g, were obtained from Scientific Small Animal Laboratory and Farm (Arlington Heights, IL). Collangenase, code CLSPA was purchased from Worthington (Frehold, NJ).
The final BSA concentration was 0.1%. The cortical tissues were incubated at 30°C for 150 min. and pancreatic tissues were incubated at 37°C for 150 min. Incubations were terminated by filtration using Skatron Cell Harvester and SS32 microfiber filter mats. […] IC₅₀s were determined from the Hill analysis.

On to `CCC[C@H]1CCN(C(=O)[C@@H]2Cc3c[nH]c4cccc(c34)CC(=O)N2)[C@@H]1C(=O)N[C@@H](CC(=O)O)C(=O)N[C@@H](Cc1ccccc1)C(N)=O` [Example 48, Ctp-Tpp-Asp-Phe-NH₂], for which, in assay [1], the Emax came out at 103%. Further, the IC50 on cortical CCK receptor is 0.7 nM; at CCK receptors, 3.5 µM.

(Values after patent EP0405506A1, “Tetrapeptide type-B CCK receptor ligands” (ABBOTT LABORATORIES, priority 1989, dated 1991).)
